Earlier results on one compound are cited in patent US20250114361A1, “PYRAZOLOPYRIMIDINE COMPOUND AND PHARMACEUTICAL USE THEREOF” (Japan Tobacco Inc., priority 2022, published 2025).

Series [1] deals with mouse model of deoxycorticosterone acetate-salt. The settings on record: in vivo; cited from earlier work.
Series [2] relates to APP/PS1 mice. To be noted: mouse, in vivo; cited from earlier work.
The subject of series [3] is α-synuclein PFF injected mice. To be noted: mouse, in vivo; cited from earlier work.
The subject of series [4] is R6/2 mice. To be noted: mouse, in vivo; cited from earlier work.
In series [5] the test system is microglia. The settings on record: cited from earlier work.
Series [6] has as its system TBI model mice. The settings on record: mouse, in vivo; cited from earlier work.
The subject of series [7] is middle cerebral artery occlusion (MCAO) mice. To be noted: MCAO model; cited from earlier work.
Series [8] relates to intracerebral bleeding model rats. The settings on record: cited from earlier work.
In series [9] the test system is pilocarpine-induced epilepsy model mice. To be noted: mouse, in vivo; cited from earlier work.
The test system of series [10] is pathological models of depressive illness. The settings on record: in vivo; cited from earlier work.
Series [11] has as its system maternal immune activation (MIA) model. To be noted: administration to the mother; cited from earlier work.
In series [12] the test system is mice with spinal cord injury. The settings on record: mouse, in vivo; cited from earlier work.
Series [13] deals with intestinal perforation model. To be noted: in vivo; cited from earlier work.
The subject of series [14] is mice infected with SARS-CoV-2. The settings on record: mouse, in vivo; cited from earlier work.
Series [15] concerns STZ-induced diabetic mice. To be noted: mouse, in vivo; cited from earlier work.

For `CC(C)(O)c1coc(S(=O)(=O)NC(=O)Nc2c3c(cc4c2CCC4)CCC3)c1` [MCC950], the hypertension entry in [1] is given as “suppress hypertension”. In addition, the “NLRP3 activation in microglia and cognitive dysfunction” value in series [2] is “suppresses NLRP3 activation in microglia and improves cognitive dysfunction”. For the same compound, the “NLRP3 activation and neuronal death of dopamine neurons in the substantia nigra” value in [3] was “inhibits NLRP3 activation in the substantia nigra and suppresses neuronal death of dopamine neurons in the substantia nigra”. The “NLRP3 inflammasome activation, neuronal death in the striatum, symptom progression” value in series [4] is “inhibits NLRP3 inflammasome activation in the striatum of R6/2 mice, suppresses neuronal death in the striatum, and suppresses symptom progression”. Besides, in [5], the “NLRP3 activation in microglia and IL-1β production” value was “inhibits SOD1G93A and TDP-43 protein-induced NLRP3 activation in microglia and decreases IL-1β production”. In addition, the “IL-1β production and neurological symptoms after brain injury” value in [6] was “inhibits IL-1β production in TBI model mice and suppresses the development of neurological symptoms after brain injury”. Moreover, the neuroprotective effects result in series [7] and in [8] was “showed neuroprotective effects” throughout. In addition, the “apoptosis of hippocampal neurons” value in [9] is listed as “suppress apoptosis of hippocampal neurons”. Also, in [10], the depressive symptoms result is on record as “improves depressive symptoms”. In addition, the “ASD symptoms in offspring” value in series [11] is reported as “suppresses ASD symptoms in offspring”. Moreover, in series [12], the “NLRP3 activation and IL-1β expression in the spinal cord, recovery of motor function” value is “NLRP3 activation and IL-1β expression in the spinal cord are suppressed, and the recovery of motor function is promoted”. For the same compound, the “NLRP3 inflammasome activation and memory impairment” value in series [13] was “NLRP3 inflammasome activation is suppressed and the memory impairment is improved”. Further, the “NLRP3 inflammasome activation in the lung and dysregulated immune response” value in series [14] is “inhibits NLRP3 inflammasome activation in the lung and suppresses the dysregulated immune response”. Further, the increased vascular permeability entry in series [15] is listed as “alleviated increased vascular permeability”.
